Data taken from US20090241221A1, “TANDEM REAPEAT DNA CONSTRUCTS PRODUCING PROTEINS THAT ATTACK PLANT PATHOGENIC VIRUSES, FUNGI, AND BACTERIA BY DISRUPTING TRANSCRIPTION FACTORS ESSENTIAL FOR REPLICATION THEREOF IN PLANTS” (priority 2008, published 2009).
“Also recorded” adds a separate entry of the source.

How the values were obtained:
[1] = system: tomato spotted wilt virus; settings: tomato and tobacco plants; cited from earlier work
[2] = system: SV40-transformed Balb 3T3 cells; settings: cited from earlier work
[3] = system: Rice suspension cells and leaves; settings: cited from earlier work
[4] = system: SV40 transformed BALB-3T3 cells; settings: 3 mM picolinic acid; cited from earlier work
[5] = system: virally infected cells; assay: Apoptosis of virally infected cells; assay type: cell-based; settings: for fate of viruses and host cells: HIV-1, Hepatitis C and numerous other viruses as well as the host cells
From the text: APOPTOSIS. Apoptosis is a morphological pattern of cell injury and an important mode of cell death (Robbins, Pathological Basis of Disease, 1999, 6th Ed). Apoptosis shares and overlaps common mechanisms with necrosis. […] This form of cell death is designed to eliminate defective, unwanted and damaged cells. For example, the inventors have shown that cells infected by Herpes Simplex Virus 1 (HSV; labialis) and HSV-2 genitalis are destroyed together with the host cells that they infected by apoptosis when exposed to pyridine carboxylates (Fernandez-Pol, Anticancer Res. 2002). […] Thus, the inventors believes that when host cells of animals or plants are infected by pathogenic viruses, unless the treatment is extremely quickly, the host cells and the virus will be destroyed. In fact, host cells defective, mutated, and reservoirs for the novo synthesis of viruses are unwanted host cells and must be eliminated in many instances to allow the survival of the organism.

[6] = system: iron incorporation into the cells; assay: Kinetic and radioisotopic studies of iron in cells; assay type: cell-based
[7] = system: transformed cells; settings: Kirsten sarcoma virus transformed cells; Flow Microfluorometric Analysis of DNA; cited from earlier work
[8] = biological target: T1, recombinant MPS-1 (Homo sapiens, UniProt P42677); assay: Gel shift assay and Zn65 removal with recombinant MPS-1; assay type: biochemical; settings: for zinc dependent binding of recombinant MPS-1 to DNA: gel shift assays
T1 construct: made in house
From the text: MPS-1 is a ubiquitous tumor marker and cell growth stimulator and is described in detail in the inventors' U.S. Pat. No. 5,243,041. MPS-1 has one zinc finger domain of the type CCCC. […] This is detected by a change in the electrophoretic mobility of MPS-1 under non-denaturing conditions. These experiments indicate that picolinic acid and derivatives should remove zinc and denature various types of zinc finger, zinc ring proteins, or other types of ZF motifs whether known or heretofore undiscovered, including animal or plant viral proteins such as nucleocapsid proteins of retrovirus or the nucleocapsid proteins of Geminivirus. Furthermore, the inventors have determined that any chemical compound, whether known or heretofore undiscovered, that will remove the zinc (or other metal) and denature the proteins or that will form a ternary complex (protein-zinc-chelator) can be effective as an antiviral agent, with nontoxic effects, provided that the agent conforms with certain specific structural requirements.

[9] = system: normal cells (BALB 3T3, NRK, WI-348); assay: Growth control and cell cycle arrest in normal cells
[10] = system: Arabidopsis thaliana; settings: cited from earlier work
[11] = system: NRK cells; settings: NRK cells treated with picolinic acid; cited from earlier work
[12] = system: Mammalian rotaviruses; settings: millimolar concentrations; cited from earlier work
[13] = system: mammalian retroviruses; settings: millimolar concentrations; measured by release of reverse transcriptase; cited from earlier work
[14] = system: Arabidopsis thaliana ars27A mutant; settings: in comparison with the wild type; cited from earlier work
[15] = system: HSV-1; settings: tissue culture and animals; cited from earlier work
[16] = system: Arabidopsis thaliana; settings: cited from earlier work; remark: listed apart in the source
[17] = system: Orobache ramosa; settings: Arabidopsis thaliana pre-treated with FU; cited from earlier work
[18] = system: HSV-2; settings: tissue culture and animals; cited from earlier work

## NC(=O)c1ncn([C@@H]2O[C@H](CO)[C@@H](O)[C@H]2O)n1 [Ribavirin]
[1]
  efficacy against tomato spotted wilt virus: successfully used; also recorded: most efficient in tomato plants

## NC(=O)c1cccnc1 [Nicotinamide, reference compound]
[2]; 48 h
  effect on cell growth or apoptosis: no effect on cell growth or apoptosis

## O=C(O)c1ccccn1 [picolinic acid, 2-pyridine carboxylic acid]
[3]; Rice suspension cells and leaves
  apoptosis: showed apoptosis
[3]; rice suspension cells, Ca^2+-dependent
  reactive oxygen species: induced reactive oxygen species (ROS)
[3]; rice
  hypersensitive response (HR): can elicit the hypersensitive response (HR)
[4]
  mitochondrial cytochrome c release: released cytochrome c
[5]
  fate of viruses and host cells: Death by apoptosis
[5]; by apoptosis
  fate of virally infected cells: killed
[6]
  incorporation of iron into the cells: inhibits incorporation of iron into the cells
  removal of radioiron from the cells: effectively removes radioiron from the cells
[7]
  phase of cell cycle arrest: G1 phase
[8]
  removal of zinc (Zn65) from the CCCC zinc finger of MPS-1: remove radioactive Zn65 from MPS-1; also recorded: remove zinc
  zinc dependent binding of recombinant MPS-1 to DNA: inhibit
[2]
  sensitivity of transformed cells to apoptosis: extremely sensitive to apoptosis
[9]; longer exposure (one week)
  toxic effects in normal cells: most normal cells showed no toxic effects; also recorded: no toxic effects
[9]; short-term treatment
  cell cycle arrest of normal cells: arrests normal cells in G1 (Go)
[10]; dose-dependent and time dependent
  marker defense genes PR-1, PR-2 and PDF1.2: all induced
[10]; in vivo
  salicylic acid-dependent and jasmonic acid/ethylene-dependent pathways: strongly activated
[10]; including the oxidative burst and cell death
  hypersensitive response (HR): induced HR
[11]
  potency of prostaglandin E1 in elevating cyclic AMP: two to five times more potent

## O=C(O)CN(CCN(CC(=O)O)CC(=O)O)CC(=O)O [EDTA]
[12]
  disintegration of viral membranes: partial disintegration of the viral membranes
[13]
  disintegration of viral membranes: partial disintegration of viral membranes

## O=C(O)CN(CCOCCOCCN(CC(=O)O)CC(=O)O)CC(=O)O [EGTA]
[12]
  disintegration of viral membranes: partial disintegration of the viral membranes
[13]
  disintegration of viral membranes: partial disintegration of viral membranes

## COS(C)(=O)=O [MMS, Methyl Methane Sulphonate]
[14]
  growth of ars27A seedlings: strongly inhibited

## CCCCc1ccc(C(=O)O)nc1 [fusaric acid, 5-butyl picolinic acid]
[5]
  fate of viruses and host cells: Death by apoptosis
[15]
  efficacy against viral infection: effective
[8]
  removal of zinc (Zn65) from the CCCC zinc finger of MPS-1: remove radioactive Zn65 from MPS-1; also recorded: remove zinc
  zinc dependent binding of recombinant MPS-1 to DNA: inhibit
[16]; also rapid transient membrane hyperpolarization, then large depolarization
  concentrations that reduced root growth: > 500 µM
[16]; in vivo
  concentration eliciting plant defense responses without toxic effects: 100 nM
[17]
  germination of the angiosperm parasite: inhibited
[18]
  efficacy against viral infection: effective
